Where only a bound is given, the exact number is not on record here.

Results on 27 molecules are retold here after patent publication US9346812B2, “Substituted pyrrolopyrimidine compounds, compositions thereof, and methods of treatment therewith” (Signal Pharmaceutical LLC, priority 2013, dated 2016).

The assay concerns CAL51 cell proliferation. The assay can be described thus: Cell Titer Glo Proliferation Assay (CAL51). The following applies: Homo sapiens, CAL-51; CAL51 cell proliferation, 72 h, Cell Titer Glo luminescence; read-out: Act. Level. The class given is cell-based, human. Here is the method:
Cell Titer Glo Proliferation Assay. Triple negative breast cancer cell line CAL51 was purchased from DSMZ. […] Allcell lines were maintained in growth media consisting of 90% high glucose Dulbecco's Modified Eagle Medium or RPMI1640 (Invitrogen), 10% fetal bovine serum (Hyclone), and 2 mM L-glutamine (Invitrogen). […] After overnight culture, compound stock (30 mM) was diluted serially in DMSO, further diluted in growth media, and was added to each well as a 10× concentrated solution in a volume of 11 μL, mixed, and allowed to incubate with cells. The compound vehicle (DMSO) was maintained at a final concentration of 0.2% in all wells. After 72 h, 100 μL of Cell Titer Glo solution (Promega) was added to each well of the 96-well plate. The plate was placed on a shaker for 2 minutes. After 10 minutes incubation, the luminescence signal was detected with Envision microplate reader (Perkin Elmer).
For orientation: In ATP-based viability assays light output follows the ATP content of the culture.

On to `CNC(=O)c1ccc(Nc2nc(OC3CCCC3)c3c(-c4ccc5nc[nH]c5c4)c[nH]c3n2)c(OC)c1` [Example 30, 4-(5-(1H-benzo[d]imidazol-6-yl)-4-(cyclopentyloxy)-7H-pyrrolo[2,3-d]pyrimidin-2-ylamino)-3-methoxy-N-methylbenzamide], for which the IC50 is less than 100 nM.

`CNC(=O)c1ccc(Nc2nc(OC(C)C)c3c(-c4ccnn4C)c[nH]c3n2)c(OC)c1` [Example 226, 4-(4-isopropoxy-5-(1-methyl-1H-pyrazol-5-yl)-7H-pyrrolo[2,3-d]pyrimidin-2-ylamino)-3-methoxy-N-methylbenzamide]: the IC50 is 1000 to 10000 nM.

For `Cc1cc(-c2c[nH]c3nc(Nc4ccc(C(=O)N(C)C)cc4C)nc(OC4CCOCC4)c23)ccn1` [Example 117, N,N,3-trimethyl-4-(5-(2-methyl-pyridin-4-yl)-4-(tetrahydro-2H-pyran-4-yloxy)-7H-pyrrolo[2,3-d]pyrimidin-2-ylamino)benzamide], the IC50 was less than 100 nM.

`CNC(=O)c1ccc(Nc2nc(OC3CCCC3)c3c(-c4cccc(NS(C)(=O)=O)c4)c[nH]c3n2)c(OC)c1` [Example 57, 4-(4-(cyclopentyloxy)-5-(3-(methylsulfonamido)phenyl)-7H-pyrrolo[2,3-d]pyrimidin-2-ylamino)-3-methoxy-N-methylbenzamide]: the IC50 lay in the range of 100 to 400 nM.

For the molecule `CNC(=O)c1ccc(Nc2nc(OC3CCCC3)c3c(-c4ccc5cnn(C)c5c4)c[nH]c3n2)c(OC)c1` [Example 278, 4-(4-(cyclopentyloxy)-5-(1-methyl-1H-indazol-6-yl)-7H-pyrrolo[2,3-d]pyrimidin-2-ylamino)-3-methoxy-N-methylbenzamide], the IC50 fell in the range of 400 to 1000 nM.

Turning to `COc1cc(C(=O)N(C)C2COC2)ccc1Nc1nc(OC2CCCC2)c2c(-c3ccc4nc(C)oc4c3)c[nH]c2n1` [Example 272, 4-(4-(cyclopentyloxy)-5-(2-methylbenzo[d]oxazol-6-yl)-7H-pyrrolo[2,3-d]pyrimidin-2-ylamino)-3-methoxy-N-methyl-N-(oxetan-3-yl)benzamide], the IC50 is less than 100 nM.

For the molecule `Cc1nc2ccc(-c3c[nH]c4nc(Nc5ccc(C(=O)N(C)C)cc5C)nc(O[C@@H]5CCCOC5)c34)cc2o1` [Example 121, (R)-N,N,3-trimethyl-4-(5-(2-methylbenzo[d]oxazol-6-yl)-4-(tetrahydro-2H-pyran-3-yloxy)-7H-pyrrolo[2,3-d]pyrimidin-2-ylamino)benzamide], the IC50 was in the range of 100 to 400 nM.

With `Cc1cc(C(=O)N(C)C)ccc1Nc1nc(OC2CCOCC2)c2c(-c3ccnc(C#N)c3)c[nH]c2n1` [Example 140, 4-(5-(2-cyanopyridin-4-yl)-4-(tetra-hydro-2H-pyran-4-yloxy)-7H-pyrrolo[2,3-d]pyrimidin-2-ylamino)-N,N,3-trimethylbenzamide], the IC50 fell in the range of 100 to 400 nM.

Consider `CNC(=O)c1ccc(Nc2nc(OC3CCOCC3)c3c(-c4ccnc(NC)c4)c[nH]c3n2)c(OC)c1` [Example 155, 3-methoxy-N-methyl-4-(5-(2-(methylamino)pyridin-4-yl)-4-(tetrahydro-2H-pyran-4-yloxy)-7H-pyrrolo[2,3-d]pyrimidin-2-ylamino)benzamide], for which the IC50 was less than 100 nM.

Regarding `COc1cc(C(=O)NC[C@H](C)O)ccc1Nc1nc(OC2CCCC2)c2c(-c3ccc4nc(C)oc4c3)c[nH]c2n1` [Example 240, (S)-4-(4-(cyclopentyloxy)-5-(2-methylbenzo[d]oxazol-6-yl)-7H-pyrrolo[2,3-d]pyrimidin-2-ylamino)-N-(2-hydroxypropyl)-3-methoxybenzamide], the IC50 was in the range of 100 to 400 nM.

Consider `COc1cc(C(=O)NCCF)ccc1Nc1nc(OC2CCCC2)c2c(-c3ccc4nc(C)oc4c3)c[nH]c2n1` [Example 256, 4-(4-(cyclopentyloxy)-5-(2-methylbenzo[d]oxazol-6-yl)-7H-pyrrolo[2,3-d]pyrimidin-2-ylamino)-N-(2-fluoroethyl)-3-methoxybenzamide], for which the IC50 was 100 to 400 nM.

With `COc1cc(C(=O)NC2COC2)ccc1Nc1nc(OC2CCCC2)c2c(-c3cnn(C)c3)c[nH]c2n1` [Example 303, 4-(4-(cyclopentyloxy)-5-(1-methyl-1H-pyrazol-4-yl)-7H-pyrrolo[2,3-d]pyrimidin-2-ylamino)-3-methoxy-N-(oxetan-3-yl)benzamide], the IC50 was less than 100 nM.

Turning to `CNC(=O)c1ccc(Nc2nc(O[C@H]3CC[C@@](C)(O)CC3)c3c(-c4ccc5nc(C)oc5c4)c[nH]c3n2)c(C)c1` [Example 151, 4-(4-((1s,4s)-4-hydroxy-4-methylcyclohexyloxy)-5-(2-methylbenzo[d]oxazol-6-yl)-7H-pyrrolo[2,3-d]pyrimidin-2-ylamino)-N,3-dimethylbenzamide], the IC50 is less than 100 nM.

As to `COc1nc(Nc2ccc(C(=O)N(C)C)cc2C)nc2[nH]cc(-c3ccc4nc(C)oc4c3)c12` [Example 73, 4-(4-methoxy-5-(2-methylbenzo[d]oxazol-6-yl)-7H-pyrrolo[2,3-d]pyrimidin-2-ylamino)-N,N,3-trimethylbenzamide], the IC50 was in the range of 1000 to 10000 nM.

As for `Cc1nc2ccc(-c3c[nH]c4nc(Nc5ccc(C(=O)N(C)C)cc5C)nc(OC5CCOCC5)c34)cc2[nH]1` [Example 128, N,N,3-trimethyl-4-(5-(2-methyl-1H-benzo[d]imidazol-6-yl)-4-(tetrahydro-2H-pyran-4-yloxy)-7H-pyrrolo[2,3-d]pyrimidin-2-ylamino)benzamide], the IC50 was less than 100 nM.

With `COc1cc(C(=O)NCC(C)(C)O)ccc1Nc1nc(OC2CCCC2)c2c(-c3ccc4nc(C)oc4c3)c[nH]c2n1` [Example 285, 4-(4-(cyclopentyloxy)-5-(2-methylbenzo[d]oxazol-6-yl)-7H-pyrrolo[2,3-d]pyrimidin-2-ylamino)-N-(2-hydroxy-2-methylpropyl)-3-methoxybenzamide], the IC50 lay in the range of 100 to 400 nM.

On to `CCOc1nc2ccc(-c3c[nH]c4nc(Nc5ccc(C(=O)NC)cc5OC)nc(OC5CCCC5)c34)cc2o1` [Example 293, 4-(4-(cyclopentyloxy)-5-(2-ethoxybenzo[d]oxazol-6-yl)-7H-pyrrolo[2,3-d]pyrimidin-2-ylamino)-3-methoxy-N-methylbenzamide], for which the IC50 is 100 to 400 nM.

With `CNC(=O)c1ccc(Nc2nc(OC3CCOCC3)c3c(-c4ccncc4)c[nH]c3n2)c(C(C)C)c1` [Example 200, 3-isopropyl-N-methyl-4-(5-(pyridin-4-yl)-4-(tetrahydro-2H-pyran-4-yloxy)-7H-pyrrolo[2,3-d]pyrimidin-2-ylamino) benzamide], the IC50 lay in the range of 100 to 400 nM.

Consider `CNC(=O)c1ccc(Nc2nc(OC3CCOCC3)c3c(-c4ccc5nc(C)oc5c4)c[nH]c3n2)c(OC)c1` [Example 90, 3-methoxy-N-methyl-4-(5-(2-methylbenzo[d]oxazol-6-yl)-4-(tetrahydro-2H-pyran-4-yloxy)-7H-pyrrolo[2,3-d]pyrimidin-2-ylamino)benzamide], for which the IC50 was less than 100 nM.

For the molecule `CNC(=O)c1ccc(-c2c[nH]c3nc(Nc4ccc(C(=O)NC5COC5)cc4OC)nc(OC4CCOCC4)c23)cc1` [Example 310, 3-methoxy-4-(5-(4-(methylcarbamoyl)phenyl)-4-(tetrahydro-2H-pyran-4-yloxy)-7H-pyrrolo[2,3-d]pyrimidin-2-ylamino)-N-(oxetan-3-yl) benzamide], the IC50 was less than 100 nM.

In the case of `CNC(=O)c1ccc(-c2c[nH]c3nc(Nc4ccc(C(=O)NC)cc4OC)nc(OC(C)C)c23)cc1` [Example 188, 4-(4-isopropoxy-5-(4-(methylcarbamoyl)phenyl)-7H-pyrrolo[2,3-d]pyrimidin-2-ylamino)-3-methoxy-N-methylbenzamide], the IC50 is less than 100 nM.

On to `CNC(=O)c1ccc(Nc2nc(OC3CCCC3)c3c(-c4ccc5cn[nH]c5c4)c[nH]c3n2)c(OC)c1` [Example 25, 4-(4-(cyclopentyloxy)-5-(1H-indazol-6-yl)-7H-pyrrolo[2,3-d]pyrimidin-2-ylamino)-3-methoxy-N-methylbenzamide], for which the IC50 fell in the range of 100 to 400 nM.

Regarding `CNC(=O)c1ccc(Nc2nc(O[C@H]3CC[C@](C)(O)CC3)c3c(-c4ccc5nc(C)oc5c4)c[nH]c3n2)c(C)c1` [Example 150, 4-(4-((1r,4r)-4-hydroxy-4-methylcyclohexyloxy)-5-(2-methylbenzo[d]oxazol-6-yl)-7H-pyrrolo[2,3-d]pyrimidin-2-ylamino)-N,3-dimethylbenzamide], the IC50 is less than 100 nM.

On to `COc1cc(C(=O)NC2CCCC2)ccc1Nc1nc(OC2CCCC2)c2c(-c3ccc4nc(C)oc4c3)c[nH]c2n1` [Example 229, N-cyclopentyl-4-(4-(cyclopentyl-oxy)-5-(2-methylbenzo[d]oxazol-6-yl)-7H-pyrrolo[2,3-d]pyrimidin-2-ylamino)-3-methoxybenzamide], for which the IC50 lay in the range of 400 to 1000 nM.

As for `CNC(=O)c1ccc(Nc2nc(OC3CCCC3)c3c(-c4cncc(OC)c4)c[nH]c3n2)c(Cl)c1` [Example 34, 3-chloro-4-(4-(cyclopentyloxy)-5-(5-methoxypyridin-3-yl)-7H-pyrrolo [2,3-d]pyrimidin-2-ylamino)-N-methylbenzamide], the IC50 lay in the range of 100 to 400 nM.

On to `COc1cc(C(=O)NCC2COCCO2)ccc1Nc1nc(OC2CCCC2)c2c(-c3ccc4nc(C)oc4c3)c[nH]c2n1` (stereo not drawn) [Example 281, N-((1,4-dioxan-2-yl)methyl)-4-(4-(cyclopentyloxy)-5-(2-methylbenzo[d]oxazol-6-yl)-7H-pyrrolo[2,3-d]pyrimidin-2-ylamino)-3-methoxybenzamide], for which the IC50 fell in the range of 100 to 400 nM.

With `COc1cc(C(=O)NCC2CCOCC2)ccc1Nc1nc(OC2CCCC2)c2c(-c3ccc4nc(C)oc4c3)c[nH]c2n1` [Example 243, 4-(4-(cyclopentyloxy)-5-(2-methylbenzo[d]oxazol-6-yl)-7H-pyrrolo[2,3-d]pyrimidin-2-ylamino)-3-methoxy-N-((tetrahydro-2H-pyran-4-yl)methyl)benzamide], the IC50 was 100 to 400 nM.
